Earlier results as cited in paper PMC8513935.

How the values were obtained:
[1] = log P octanol/water from commercial databases, averaged (the ESI); details: Octanol (wet), 25 C
[2] = experimental, compiled by the authors from the literature (the ESI cites the sources)
[3] = derived by the authors as gas->solvent minus gas->water (a hypothetical dry solvent; the ESI), not a two-phase measurement

## CCCCCCCC
[1]
  log K of transfer, water to solvent: 5.15 log10 K
[2]; 1,2-Dichloroethane, 25 C
  log K of transfer, gas to solvent: 3.44 log10 K
[2]; 2-Methylpropan-2-ol, 25 C
  log K of transfer, gas to solvent: 3.39 log10 K
[2]; 3-Methylbutan-1-ol, 25 C
  log K of transfer, gas to solvent: 3.4 log10 K
[2]; Acetonitrile, 25 C
  log K of transfer, gas to solvent: 2.68 log10 K
[2]; Benzene, 25 C
  log K of transfer, gas to solvent: 3.92 log10 K
[2]; Butan-1-ol, 25 C
  log K of transfer, gas to solvent: 3.26 log10 K
[2]; Butanone, 25 C
  log K of transfer, gas to solvent: 3.45 log10 K
[2]; Butyronitrile, 25 C
  log K of transfer, gas to solvent: 3.21 log10 K
[2]; CCl4, 25 C
  log K of transfer, gas to solvent: 4.05 log10 K
[2]; Chlorobenzene, 25 C
  log K of transfer, gas to solvent: 3.99 log10 K
[2]; Chloroform, 25 C
  log K of transfer, gas to solvent: 3.9 log10 K
[2]; Cyclohexane, 25 C
  log K of transfer, gas to solvent: 4.07 log10 K
[2]; Cyclohexanone, 25 C
  log K of transfer, gas to solvent: 3.42 log10 K
[2]; Decan-1-ol, 25 C
  log K of transfer, gas to solvent: 3.32 log10 K
[2]; Di-n-butyl ether, 25 C
  log K of transfer, gas to solvent: 3.85 log10 K
[2]; Dichloromethane, 25 C
  log K of transfer, gas to solvent: 3.72 log10 K
[2]; Diethyl Ether, 25 C
  log K of transfer, gas to solvent: 3.92 log10 K
[2]; Ethanol, 25 C
  log K of transfer, gas to solvent: 3.17 log10 K
[2]; Hexadecane, 25 C
  log K of transfer, gas to solvent: 3.68 log10 K
[2]; Hexane, 25 C
  log K of transfer, gas to solvent: 3.97 log10 K
[2]; Methanol, 25 C
  log K of transfer, gas to solvent: 2.82 log10 K
[2]; Octan-1-ol, 25 C
  log K of transfer, gas to solvent: 3.3 log10 K
[2]; Pentan-1-ol, 25 C
  log K of transfer, gas to solvent: 3.39 log10 K
[2]; Perfluoroalkane, 25 C
  log K of transfer, gas to solvent: 2.54 log10 K
[2]; Propan-1-ol, 25 C
  log K of transfer, gas to solvent: 3.17 log10 K
[2]; Propan-2-ol, 25 C
  log K of transfer, gas to solvent: 3.17 log10 K
[2]; Propanone, 25 C
  log K of transfer, gas to solvent: 3.23 log10 K
[2]; Propionitrile, 25 C
  log K of transfer, gas to solvent: 3.05 log10 K
[2]; Tetrahydrofuran, 25 C
  log K of transfer, gas to solvent: 3.85 log10 K
[2]; Toluene, 25 C
  log K of transfer, gas to solvent: 3.94 log10 K
[2]; Water, 25 C
  log K of transfer, gas to solvent: -2.11 log10 K
[3]; 1,2-Dichloroethane, 25 C
  log K of transfer, water to solvent: 5.55 log10 K
[3]; 2-Methylpropan-2-ol, 25 C
  log K of transfer, water to solvent: 5.5 log10 K
[3]; 3-Methylbutan-1-ol, 25 C
  log K of transfer, water to solvent: 5.51 log10 K
[3]; Acetone, 25 C
  log K of transfer, water to solvent: 5.34 log10 K
[3]; Acetonitrile, 25 C
  log K of transfer, water to solvent: 4.79 log10 K
[3]; Benzene, 25 C
  log K of transfer, water to solvent: 6.03 log10 K
[3]; Butan-1-ol, 25 C
  log K of transfer, water to solvent: 5.37 log10 K
[3]; Butanone, 25 C
  log K of transfer, water to solvent: 5.56 log10 K
[3]; Butyronitrile, 25 C
  log K of transfer, water to solvent: 5.32 log10 K
[3]; CCl4, 25 C
  log K of transfer, water to solvent: 6.16 log10 K
[3]; Chlorobenzene, 25 C
  log K of transfer, water to solvent: 6.1 log10 K
[3]; Chloroform, 25 C
  log K of transfer, water to solvent: 6.01 log10 K
[3]; Cyclohexane, 25 C
  log K of transfer, water to solvent: 6.18 log10 K
[3]; Cyclohexanone, 25 C
  log K of transfer, water to solvent: 5.53 log10 K
[3]; Decan-1-ol, 25 C
  log K of transfer, water to solvent: 5.43 log10 K
[3]; Di-n-butyl ether, 25 C
  log K of transfer, water to solvent: 5.96 log10 K
[3]; Dichloromethane, 25 C
  log K of transfer, water to solvent: 5.83 log10 K
[3]; Diethyl Ether, 25 C
  log K of transfer, water to solvent: 6.03 log10 K
[3]; Ethanol, 25 C
  log K of transfer, water to solvent: 5.28 log10 K
[3]; Hexadecane, 25 C
  log K of transfer, water to solvent: 5.78 log10 K
[3]; Hexane, 25 C
  log K of transfer, water to solvent: 6.08 log10 K
[3]; Methanol, 25 C
  log K of transfer, water to solvent: 4.93 log10 K
[3]; Octan-1-ol(dry), 25 C
  log K of transfer, water to solvent: 5.41 log10 K
[3]; Pentan-1-ol, 25 C
  log K of transfer, water to solvent: 5.5 log10 K
[3]; Perfluoroalkane, 25 C
  log K of transfer, water to solvent: 4.65 log10 K
[3]; Propan-1-ol, 25 C
  log K of transfer, water to solvent: 5.28 log10 K
[3]; Propan-2-ol, 25 C
  log K of transfer, water to solvent: 5.28 log10 K
[3]; Propionitrile, 25 C
  log K of transfer, water to solvent: 5.16 log10 K
[3]; Tetrahydrofuran, 25 C
  log K of transfer, water to solvent: 5.96 log10 K
[3]; Toluene, 25 C
  log K of transfer, water to solvent: 6.05 log10 K

## CCC1CCCCC1
[1]
  log K of transfer, water to solvent: 4.56 log10 K
[2]; 1,2-Dichloroethane, 25 C
  log K of transfer, gas to solvent: 3.57 log10 K
[2]; Acetonitrile, 25 C
  log K of transfer, gas to solvent: 2.87 log10 K
[2]; Butan-1-ol, 25 C
  log K of transfer, gas to solvent: 3.44 log10 K
[2]; Butanone, 25 C
  log K of transfer, gas to solvent: 3.53 log10 K
[2]; Butyronitrile, 25 C
  log K of transfer, gas to solvent: 3.35 log10 K
[2]; CCl4, 25 C
  log K of transfer, gas to solvent: 4.08 log10 K
[2]; Chlorobenzene, 25 C
  log K of transfer, gas to solvent: 4.06 log10 K
[2]; Chloroform, 25 C
  log K of transfer, gas to solvent: 3.99 log10 K
[2]; Cyclohexanone, 25 C
  log K of transfer, gas to solvent: 3.55 log10 K
[2]; Dichloromethane, 25 C
  log K of transfer, gas to solvent: 3.82 log10 K
[2]; Ethanol, 25 C
  log K of transfer, gas to solvent: 3.27 log10 K
[2]; Hexadecane, 25 C
  log K of transfer, gas to solvent: 3.88 log10 K
[2]; Hexane, 25 C
  log K of transfer, gas to solvent: 3.97 log10 K
[2]; Methanol, 25 C
  log K of transfer, gas to solvent: 2.96 log10 K
[2]; Perfluoroalkane, 25 C
  log K of transfer, gas to solvent: 2.56 log10 K
[2]; Propan-1-ol, 25 C
  log K of transfer, gas to solvent: 3.28 log10 K
[2]; Propan-2-ol, 25 C
  log K of transfer, gas to solvent: 3.27 log10 K
[2]; Propanone, 25 C
  log K of transfer, gas to solvent: 3.32 log10 K
[2]; Propionitrile, 25 C
  log K of transfer, gas to solvent: 3.17 log10 K
[2]; Tetrahydrofuran, 25 C
  log K of transfer, gas to solvent: 3.92 log10 K
[2]; Water, 25 C
  log K of transfer, gas to solvent: -1.58 log10 K
[3]; 1,2-Dichloroethane, 25 C
  log K of transfer, water to solvent: 5.15 log10 K
[3]; Acetone, 25 C
  log K of transfer, water to solvent: 4.9 log10 K
[3]; Acetonitrile, 25 C
  log K of transfer, water to solvent: 4.45 log10 K
[3]; Butan-1-ol, 25 C
  log K of transfer, water to solvent: 5.02 log10 K
[3]; Butanone, 25 C
  log K of transfer, water to solvent: 5.11 log10 K
[3]; Butyronitrile, 25 C
  log K of transfer, water to solvent: 4.93 log10 K
[3]; CCl4, 25 C
  log K of transfer, water to solvent: 5.66 log10 K
[3]; Chlorobenzene, 25 C
  log K of transfer, water to solvent: 5.64 log10 K
[3]; Chloroform, 25 C
  log K of transfer, water to solvent: 5.57 log10 K
[3]; Cyclohexanone, 25 C
  log K of transfer, water to solvent: 5.13 log10 K
[3]; Dichloromethane, 25 C
  log K of transfer, water to solvent: 5.4 log10 K
[3]; Ethanol, 25 C
  log K of transfer, water to solvent: 4.84 log10 K
[3]; Hexadecane, 25 C
  log K of transfer, water to solvent: 5.45 log10 K
[3]; Hexane, 25 C
  log K of transfer, water to solvent: 5.55 log10 K
[3]; Methanol, 25 C
  log K of transfer, water to solvent: 4.54 log10 K
[3]; Perfluoroalkane, 25 C
  log K of transfer, water to solvent: 4.14 log10 K
[3]; Propan-1-ol, 25 C
  log K of transfer, water to solvent: 4.86 log10 K
[3]; Propan-2-ol, 25 C
  log K of transfer, water to solvent: 4.85 log10 K
[3]; Propionitrile, 25 C
  log K of transfer, water to solvent: 4.75 log10 K
[3]; Tetrahydrofuran, 25 C
  log K of transfer, water to solvent: 5.5 log10 K

## Clc1cccc(Cl)c1
[1]
  log K of transfer, water to solvent: 3.6 log10 K
[2]; CCl4, 25 C
  log K of transfer, gas to solvent: 4.55 log10 K
[2]; Chloroform, 25 C
  log K of transfer, gas to solvent: 4.59 log10 K
[2]; Hexadecane, 25 C
  log K of transfer, gas to solvent: 4.41 log10 K
[2]; Hexane, 25 C
  log K of transfer, gas to solvent: 4.53 log10 K
[2]; Octan-1-ol, 25 C
  log K of transfer, gas to solvent: 4.13 log10 K
[2]; Water, 25 C
  log K of transfer, gas to solvent: 0.72 log10 K
[3]; CCl4, 25 C
  log K of transfer, water to solvent: 3.83 log10 K
[3]; Chloroform, 25 C
  log K of transfer, water to solvent: 3.87 log10 K
[3]; Hexadecane, 25 C
  log K of transfer, water to solvent: 3.69 log10 K
[3]; Hexane, 25 C
  log K of transfer, water to solvent: 3.81 log10 K
[3]; Octan-1-ol(dry), 25 C
  log K of transfer, water to solvent: 3.41 log10 K
